The nature of data set [1]: Cytotoxicity in uninfected MT2 cells, XTT colorimetric assay. Conditions: human, day 4, XTT, read-out: cytotoxic CC50. It is filed as cell-based. As to the method:
Compound cytotoxicity and the corresponding CC50 values were determined using the same protocol as described in the antiviral assay except that uninfected cells were used. Cytotoxicity was assessed on day 4 in uninfected MT2 cells by using an XTT (2,3-bis[2-Methoxy-4-nitro-5-sulfophenyl]-2H-tetrazolium-5-carboxanilide inner salt)-based colorimetric assay (Sigma-Aldrich, St Louis, Mo.).
In general terms: Formazan colour is commonly taken as a measure of viable cells.

The nature of data set [2]: Metabolism in dog liver microsomes. It is filed as in vitro ADME. As to the method:
(§1) Liver microsomes from human, rat dog and monkey were thawed and diluted to a final concentration of 1 mg/mL in 100 mM potassium phosphate buffer (pH 7.4). Test compounds and controls were prepared at 100× final concentration of 1 μM in 1:1 acetonitrile:water (v/v) and aliquoted into microsomal mixture. The mixture was preincubated at 37° C. in a shaking water bath for 10 minutes. The incubations were performed in duplicate. Three controls were included in the incubations; warfarin, phenacetin, and verapamil. After the preincubation, the reaction was initiated with NADPH at a final concentration of 1 mM. At 0, 5, 15, 30, 45 and 60 minutes, 25 μL of sample was removed and quenched with 300 μL of acetonitrile containing internal standard (Telmisartan). The samples were vortexed for 5 minutes at 1200 rpm and then centrifuged at 4000 rpm for 10 min. A 100 μL aliquot of supernatant was diluted three-fold with water and injected on an Exion LC 4500 Triple Quad LC-MS/MS system. Results were reported as a percentage of parent remaining and was calculated from peak area ratios of test compound remaining after at each time point and compared to time zero incubation.
For orientation: Liver microsomes are vesicles of endoplasmic reticulum, rich in cytochrome P450 enzymes.

A short description of data set [3]: Metabolism in monkey liver microsomes. It is filed as in vitro ADME. As to the method: as §1
Data set [4] in a line: Pharmacokinetic parameters in vivo, mouse. The settings on record: male, CD1, plasma. Details: species or system male CD1 mice. As to the method:
(§2) PK was investigated in male CD1 mice, Wistar Han Rats, Cynomolgus monkeys, and Beagle Dogs. Two groups of animals (N=3 per group) received test compound either as an intravenous (IV) dose (1 mg/kg) or by oral gavage (5 mg/kg solution and suspension). Drug was formulated in 90% PEG 400, 10% ethanol for IV administration and in 90% PEG400, 5% ethanol for PO administration. Blood samples were collected at 0.167, 0.25, 0.5, 0.75, 1, 2, 3, 5, 7, 24, 48, 72 and 96 h post dose for IV; 0.25, 0.5, 0.75, 1, 2, 3, 5, 7, 24, 48, 72 and 96 h post dose for oral. Blood samples were collected into K3EDTA tubes and centrifuged at 1500 to 2000×g to obtain plasma. Plasma samples were stored at −20° C. until analysis by LC-MS/MS. All […] samples were injected on an Exion LC 4500 Triple Quad™ LC-MS/MS system. The analytical column used was a Phenomenex C18 (C18, 4.6 mm×50 mm, 5 μm) maintained at room temperature. Mobile Phase A consisted of 0.1% (v/v) formic acid in MilliQ water. Mobile Phase B consisted of 100% methanol. The flow rate was 1 mL/min. […] All LC-MS/MS analysis parameters are captured electronically in the raw data files. The PK parameters were obtained by non-compartmental analysis of plasma concentration vs time data (Phoenix WinNonlin v8). The peak concentration (Cmax) and time for Cmax (Tmax) were recorded directly from experimental observations. The area under the curve from time zero to the last sampling time [AUC0-T] and the area under the curve from time zero to infinity [AUCINF] were calculated using a combination of linear and log trapezoidal summations. The total plasma clearance (CLTp), steady-state volume of distribution (Vss), apparent elimination half-life (T-HALF), and mean residence time (MRT) were estimated after IV administration. Estimations of AUC and T-HALF were made using a minimum of three timepoints with quantifiable concentrations. The absolute oral bioavailability (F) was estimated as the ratio of dose-normalized AUC values following oral and IV doses.

Data set [5] in a line: Pharmacokinetic parameters in vivo, rat. Details: species or system Wistar Han Rats. The settings on record: Wistar Han, plasma. How it is done:
as §2

Data set [6] in a line: Pharmacokinetic parameters in vivo, monkey. On the set-up: species or system Cynomolgus monkeys. As to the method:
as §2

Data set [7] can be described thus: Allometric scaling of pre-clinical PK parameters to predict dose in human. As to the method: Human dose predictions were performed using Phoenix WinNonlin (v 8.0) software and Microsoft Excel using the ModelRisk add-in for population modeling. Human IV parameters (Vc, Ka, K12, K21, KeI) were determined using Mean Residence Time (MRT) scaling from preclinical species (mouse, rat, dog and cyno). For this calculation, each animal of the relevant PK studies was modeled independently. Absorption (Ka) was determined by deconvolution (PO) or from the half-life (SC) in preclinical species (Ka=LN(2)/t1/2). The predicted human dose for PO and SC is calculated with consideration of human variability and is calculated to cover 95% of the human population.

The nature of data set [8]: Subcutaneous in vivo PK experiment in rat. Details: species or system Wistar Han Rats. Conditions: subcutaneous injection 20 mg/kg. How it is done:
Drug was formulated in 1% Kolliphor P188/1% PEG3350/3.5% Mannitol/94.5% Water and then administered to Wistar Han Rats as a subcutaneous injection at a dose of 20 mg/kg. Blood samples were collected at 0.167, 0.25, 0.5, 0.75, 1, 2, 3, 5, 7, 24, 48, 72, 96 h, and then every 3 days for up to 122 days. Blood samples were collected into K3EDTA tubes and centrifuged at 1500 to 2000×g to obtain plasma. Plasma samples were stored at −20° C. until analysis by LC-MS/MS.

[9] abbreviates: cynomolgus monkey, plasma, Monkey, IV 1 mg/kg.

As usually defined, the CC50 is the concentration that lowers cell viability or growth by half. A word on the clearance: it is a measure of how efficiently the substance is removed, as volume per time. As a reminder, the bioavailability is the share of a dose that reaches the circulation, judged against a reference dose that is usually intravenous.

Take `Cn1nc(NS(C)(=O)=O)c2c(Cl)ccc(-n3c([C@H](Cc4cc(F)cc(F)c4)NC(=O)Cn4nc(C(F)F)c5c4C(F)(F)[C@@H]4C[C@H]54)nc4nc(OCCC(C)(F)F)ccc4c3=O)c21` (atropisomer, axis not shown; (P)) [Example 1, N—((S)-1-((3P)-3-(4-chloro-1-methyl-3-(methylsulfonamido)-1H-indazol-7-yl)-7-(3,3-difluorobutoxy)-4-oxo-3,4-dihydropyrido[2,3-d]pyrimidin-2-yl)-2-(3,5-difluorophenyl)ethyl)-2-((3bS,4aR)-3-(difluoromethyl)-5,5-difluoro-3b,4,4a,5-tetrahydro-1H-cyclopropa[3,4]cyclopenta[1,2-c]pyrazol-1-yl)acetamide]: the CC50 at 4 days in data set [1] is over 10 µM. Moreover, the “stability in dog liver microsomes relative to Example 60.2” value in data set [2] (Example 1 versus Example 60.2) is “at least seven times more stable”. Further, the half-life at 1 μM in data set [2] (dog, liver microsomes, pH 7.4, 1 μM compound, 1 mg/mL microsomes, NADPH, 37° C., read-out: Dog liver microsome T1/2) was over 2 h; in data set [3] (monkey, liver microsomes, pH 7.4, 1 μM compound, 1 mg/mL microsomes, NADPH, 37° C., read-out: Monkey liver microsome T1/2), over 2 h. The “stability in monkey liver microsomes relative to Example 60.2” value in data set [3] (Example 1 versus Example 60.2) was “at least two times more stable”. Further, the clearance in data set [4] (IV 1 mg/kg) is 1.77 mL/min/kg; in data set [5] (IV 1 mg/kg), 3.6 mL/min/kg; in data set [6] (setting [9]), 8.8 mL/min/kg. Moreover, the half-life in data set [4] (IV 1 mg/kg) was 7.8 h; in data set [5] (IV 1 mg/kg) it was 10.2 h; in data set [6] (setting [9]), 4.2 h; in data set [8] (Wistar Han, plasma, sc, read-out: apparent half-life of compound in plasma (converted)) it was 1200 h. The Vd in data set [4] (IV 1 mg/kg, read-out: Vss) worked out at 1.14 L/kg; in data set [5] (IV 1 mg/kg, read-out: Vss) it was 1.76 L/kg; in data set [6] (cynomolgus monkey, plasma, Monkey, IV 1 mg/kg, read-out: Vss), 1.73 L/kg. The bioavailability in data set [4] (oral gavage 5 mg/kg vs IV 1 mg/kg) amounted to 76.7%; in data set [5] (oral gavage 5 mg/kg solution vs IV 1 mg/kg) it was 57.5%; in data set [6] (cynomolgus monkey, plasma, Monkey, oral gavage 5 mg/kg solution vs IV 1 mg/kg), 7.92%. Also, the “half-life in circulation higher than Example 60.2” value in data set [6] (monkey) is “three-fold”. Besides, in data set [6] (monkey, IV), the “clearance improved relative to Example 60.2” value was 2.5 fold. The “predicted once-daily oral dose in human lower than for Example 60.2” value in data set [7] (Example 1 versus Example 60.2) is given as 15 fold. Besides, the “predicted Q1M SC dose in human lower than for Example 60.2” value in data set [7] (from SC rat apparent half-lives and predicted human clearance) is reported as 20 fold. The “predicted human QD PO dose” value in data set [7] (once-daily oral dose to maintain efficacious plasma concentration, covers 95% of human population) is on record as “less than 5 mg”. The “time drug concentrations were maintained above 5 ng/mL” value in data set [8] came to 87 days.

Source of the values: US20220105096A1, “INHIBITORS OF HUMAN IMMUNODEFICIENCY VIRUS REPLICATION” (ViiV HEALTHCARE UK (NO.5) LIMITED, priority 2019, published 2022).
